Measurements: paper PMC8409943, “Study on mechanism of low bioavailability of black tea theaflavins by using Caco-2 cell monolayer” (Drug Delivery, 2021)

Tests used:
[1] = 2 h, 200 μM
Procedure: Standard stock solutions of each theaflavin were diluted with HBSS and DMEM respectively, obtaining final test solutions of 200 μM. The recovery rate of theaflavins in HBSS and in DMEM, in the absence of cells, was analyzed by HPLC after incubation at 37 °C for 0.5, 1, 2, 3, 4, 8, 12, and 24 hours, respectively. The recovery rate was used to measure the stability and calculated as follows: (2) Recovery rate=Ct/C0× 100% where Ct is the final concentration at different incubation time (μM); C0, the initial concentration (μM).
Theaflavins were characterized by high performance liquid chromatography (HPLC, Agilent 1100VL, Agilent Technologies Inc., CA, USA). Briefly, samples were extracted with 70% methanol, centrifuged at 685 × g for 10 min, and filtered through a 0.45 μm membrane (Nylon 66). The separation was performed by an ODS reversed-phase column (4.6 mm i.d.×250 mm, SB-C18, Agilent Technologies Inc., CA, USA) at a flow rate of 0.7 mL/min. Chromatographic conditions were slightly modified according to China National Standard (GB/T 30483-2013, GAQSIQ, P. R. China, 2013). Samples were eluted with a gradient of solvent A (100 mL water with 9 mL acetonitrile and 2 mL acetic acid) and B (100 mL acetonitrile with 17.8 mL water and 2 mL acetic acid) as follows: 0–5 min, 95% A; 5–10 min, 90% A; 10–20 min, 70% A; 20–25 min, 65% A; 25–30 min, 70% A; 30–35 min, 100% A. Theaflavins were detected using an ultraviolet detector at a wavelength of 278 nm.

[2] = design: method as in Henning et al., 2006; settings: mice treated with decaffeinated black tea (50 mg/g diet) for two weeks; ref Henning et al., 2006; cited from earlier work
BCRP = assay: Quantitative real-time PCR, mRNA level of BCRP; type: cell-based, Human; settings: Caco-2 cells, 200 μM, 2 h, vs control
Procedure: (§1) Cell culture and treatment were performed as described above in 2.6. Total RNA was extracted from Caco-2 cells by the cell RNA extraction kit, and then reverse-transcribed by the cDNA synthesis kit. Gene amplification and quantitative detection were performed as previously described (Ai et al., [2019]). Target mRNA levels were normalized to β-actin mRNA levels. Data were calculated by the 2^−ΔΔCT method.

MRP1 = assay: Quantitative real-time PCR, mRNA level of MRP1; type: cell-based, Human; settings: Caco-2 cells, 200 μM, 2 h, vs control
Procedure: as §1

MRP3 = assay: Quantitative real-time PCR, mRNA level of MRP3; type: cell-based, Human; settings: Caco-2 cells, 200 μM, 2 h, vs control
Procedure: as §1

P-gp [3] = assay: Quantitative real-time PCR, mRNA level of P-gp; type: cell-based, Human; settings: Caco-2 cells, 200 μM, 2 h, vs control
Procedure: as §1

P-gp [4] = assay: Western blot, protein level of P-gp; type: cell-based, Human; settings: Caco-2 cells, 200 μM, 2 h, normalized to β-actin, vs control
Procedure: Cell lysates were prepared with RIPA lysis buffer. […] Cell protein (50 μg) was loaded onto SDS polyacrylamide gel (5% stacking gel; 8% separating gel) and separated by electrophoresis for 1.5 h at 20 mA. Next, the separated proteins were transferred onto the PVDF membrane in ice bath for 1.5 h at 120 mA, followed by blocking the membrane with 5% nonfat milk in Tris-buffered saline containing 0.1% Tween-20 (TBST) for 1 h at room temperature. After blocking, the blots were incubated overnight at 4 °C with the primary antibody of P-gp, MRP1, MRP2, MRP3, BCRP (1:200) or β-actin (1:40,000), followed by washing with TBST and incubation for 1 h at room temperature with HRP-conjugated goat anti-rabbit (1:3,000). Immunoreactive proteins were visualized by the ECL detection system, band intensity was quantified by Image Lab (Bio-Rad, CA, USA), and the protein contents were normalized to β-actin.

Caco-2 cells = assay: Intracellular accumulation of theaflavin monomers; settings: 200 μM theaflavins, 2 h incubation, 37 °C
Procedure: Caco-2 cells were seeded at a density of 8 × 10^4 cells per well in 6-well plates (Ni et al., [2020]). After differentiation over a period of 21 days, cells were incubated with 2.0 mL of 200 μM theaflavins at 37 °C. After 2 h incubation, phosphate buffer was added to wash cells in the plate. Then, cell lysates were prepared with RIPA lysis buffer containing 1 mM PMSF as a protease inhibitor and centrifugated at 12,000 rpm for 30 min. Total protein contents were quantified using a BCA estimation kit according to the manufacturer’s instructions (Beyotime). Theaflavins were quantified by HPLC analysis and the intracellular accumulation was expressed as µg theaflavin/mg protein.
Theaflavins were characterized by high performance liquid chromatography (HPLC, Agilent 1100VL, Agilent Technologies Inc., CA, USA). Briefly, samples were extracted with 70% methanol, centrifuged at 685 × g for 10 min, and filtered through a 0.45 μm membrane (Nylon 66). […] Samples were eluted with a gradient of solvent A (100 mL water with 9 mL acetonitrile and 2 mL acetic acid) and B (100 mL acetonitrile with 17.8 mL water and 2 mL acetic acid) as follows: 0–5 min, 95% A; 5–10 min, 90% A; 10–20 min, 70% A; 20–25 min, 65% A; 25–30 min, 70% A; 30–35 min, 100% A. Theaflavins were detected using an ultraviolet detector at a wavelength of 278 nm.

## O=C(O[C@@H]1Cc2c(O)cc(O)cc2O[C@@H]1c1cc(O)c(=O)c2c(O)c(O)cc([C@H]3Oc4cc(O)cc(O)c4C[C@H]3OC(=O)c3cc(O)c(O)c(O)c3)c2c1)c1cc(O)c(O)c(O)c1 [TFDG, theaflavin-3, 3’-digallate]
[1]
  degraded due to the structural instability: 11.6%
[2]
  amount in tissue samples: less than 1 nmol/g tissue
BCRP
  increase of mRNA level of BCRP: 35.49%

## O=C(O[C@@H]1Cc2c(O)cc(O)cc2O[C@@H]1c1cc(O)c(=O)c2c(O)c(O)cc([C@H]3Oc4cc(O)cc(O)c4C[C@H]3O)c2c1)c1cc(O)c(O)c(O)c1 [TF3G, theaflavin-3-gallate]
MRP1
  increase of mRNA level of MRP1: 154.97%
MRP3
  increase of mRNA level of MRP3: 34.01%
P-gp [3]
  increase of mRNA level of P-gp: 44.45%
P-gp [4]
  increase of protein level of P-gp: 23.94%

## O=C(O[C@@H]1Cc2c(O)cc(O)cc2O[C@@H]1c1cc(O)c(O)c2c(=O)c(O)cc([C@H]3Oc4cc(O)cc(O)c4C[C@H]3O)cc12)c1cc(O)c(O)c(O)c1 [TF3’G, theaflavin-3’-gallate]
Caco-2 cells
  Contents of theaflavins absorbed in Caco-2 cells: -
